Experimental data: patent US11952328B2, “Selective ship inhibitors for treating disease” (THE RESEARCH FOUNDATION FOR THE STATE UNIVERSITY OF NEW YORK, priority 2018, dated 2024)

What was measured:
RMA-Rael cells = assay: Overall survival of RMA-Rael tumor challenged hosts (Kaplan-Meier); type: in vivo, mice
Description: FIGS. 6A-6I show the survival of tumor bearing mice treated with a SHIP inhibitor. […] Hosts were treated on the day of tumor challenge and the following day as in FIG. 1. The 2-day treatment course was repeated each week for the duration of survival. […] Mice received either NK cell depleting, anti-NK1.1 antibody (PK136), or isotype control antibody prior to tumor challenge (5×10^5 RMA-Rael). The hosts received SHIP inhibitor two consecutive days each week until death. […] The hosts were treated on the day of tumor challenge and the following day as in FIG. 1. The 2-day treatment course was repeated each week for the duration of survival.
The most clinically relevant endpoint in any cancer therapy study is not a measured decrease in tumor burden, but instead, a significant increase in survival promoted by the treatment.
In order to further define 3AC′s capacity to control malignancy through immunomodulatory effects the capacity of 3AC to promote resistance of NSG, TcRa^−/− and NK cell depleted hosts to RMA-Rael tumor challenge was examined. As before, mice received treatment with 3AC or vehicle for two consecutive days each week followed by a five-day cessation of treatment to prevent disarming and/or exhaustion. This treatment strategy was continued indefinitely and survival was monitored (FIG. 6A). To confirm that, in addition to the chemotherapeutic effect documented in FIG. 5, 3AC-induced enhanced-NK and -T cell activity is important for the survival benefit following tumor challenge, NSG mice (mice deficient of all lymphocyte lineages) were challenged.
To determine if T cells are required for the 3AC-mediated survival benefit, the same expirement using TcRa^−/− hosts that lack a TcR-ab^+ T cell compartment was repeated. […] To directly test the requirement for an intact NK cell compartment for 3AC-mediated increased survival after tumor challenge, the experiment as described in FIG. 6A were repeated challenging C57BL/6 hosts that were first depleted of
NK cells. Here, prior to tumor challenge, hosts were injected with either NK cell depleting anti-NK1.1 antibody (C57BL/6-DNK) or with antibody isotype control (C57BL/6-iso) (FIG. 6B).
The SHIP1 inhibitor 3AC was then tested in a genetic model in which the molecular target, SHIP1, was absent in a key target population of T cells, which are required for protection in the RMA-Rael lymphoma challenge model. […] Thus, SHIP inhibitor protection after tumor challenge is lost when the T cell compartment lacks the molecular target (SHIP1) in T cells.
There are two paralogs of SHIP: SHIP1 which is expressed in a limited range of tissues including hematopoietic cells, and SHIP2 which is expressed by a wide array of cell types. To determine if SHIP2 may also play a role in host defense against malignancy as described above tumor bearing mice were treated with small-molecule inhibitors against SHIP2 as well. […] Stem Cells. (2015); 33: 848-858; Hoekstra, E. et al., Lipid phosphatase SHIP2 functions as oncogene in colorectal cancer by regulating PKB activation. Oncotarget. (2016) 7: 73525-73540). Like 3AC, pan-SHIP1/2 inhibitors such as K118 are also cytotoxic for RMA-Rael cells in vitro. The pan SHIP1/2 inhibitory compounds K118 and K149 were compared to the SHIP1 selective compound 3AC.
Simultaneous inhibition of both SHIP1and SHIP2 may be deleterious to the immune response promoted by 3AC. […] In the study, the SHIP1 selective inhibitor 3AC that provides for protection after RMA-Rael challenge was simulataneously co-administered.

MC-38 = MC-38 viability following in vitro treatment; type: cell-based, mice; conditions: in vitro 24 h; all concentrations N.S. vs solvent only
Description: FIG. 7A and FIG. 7B show CT26 (FIG. 7A) and MC-38 (FIG. 7B) viability following in vitro treatment with 3AC for 24 h at indicated doses. Relative viability is expressed as frequency compared to solvent only treated cells. Kill curve summarizes pooled data from three independent experiments using six replicate wells/concentration with mean±SEM indicated. BALB/C mice were challenged with subcutaneous injection of CT26 colon carcinoma cells in the right flank. Mice were treated with either 2 consecutive days of 3AC or vehicle control each week as in FIG. 4A. Tumor size at […] 28 days (FIG. 7C), and tumor weight on day 28 determined after dissection of tumor (FIG. 7E). […] C57BL/6 mice were challenged with subcutaneous injection of MC-38 colon carcinoma cells in the right flank. Mice were treated with either 2 consecutive days of SHIP inhibitor or vehicle control each week as in FIG. 4A. Tumor size at 14, 21 and 25 days (FIG. 7D), and tumor weight (FIG. 7F) on day 25 were determined after dissection of tumor. […] FIG. 7A (n=18 per group. One-way ANOVA with Dunnett's multiple comparisons. 0 μM vs. 20 μM Adjusted p value=0.0463. All other concentrations of SHIP inhibitor compared with solvent only N.S.). FIG. 7B (n=18 per group. One-way ANOVA with Dunnett's multiple comparisons. All concentrations of SHIP inhibitor compared with solvent only N.S.). […]

## CC(C)CCC[C@@H](C)[C@H]1CC[C@H]2[C@@H]3CCC4C[C@H](N)CC[C@]4(C)[C@H]3CC[C@]12C (stereo partly drawn) [Compound 3AC, 3-α-aminocholestane]
RMA-Rael cells; 3AC-treated NK cell depleted C57BL/6 (anti-NK1.1) vs 3AC-treated isotype control hosts
  overall survival: significantly compromised survival
RMA-Rael cells; C57BL/6 hosts, 1×10^5 RMA-Rael, FIG. 6H
  long-term survival: long-term survival in a subset of hosts
RMA-Rael cells; C57BL/6 hosts, 1×10^5 RMA-Rael, FIG. 6H, vs vehicle
  overall survival (protection): extended survival
RMA-Rael cells; C57BL/6 hosts, 5×10^5 RMA-Rael, two consecutive days each week, five-day cessation, vs vehicle
  overall survival: significantly increased survival
RMA-Rael cells; CD4CreSHIP flox/flox mice treated with 3AC vs vehicle-treated SHIP+/flox mice
  overall survival: comparable survival
RMA-Rael cells; NSG mice, pulsatile dosing, vs vehicle-treated NSG
  median survival: very modest increase
RMA-Rael cells; SHIP flox/flox mice treated with 3AC vs 3AC-treated CD4CreSHIP flox/flox and vehicle-treated SHIP+/flox
  overall survival: enhanced survival
RMA-Rael cells; TcRa−/− hosts, pulsatile dosing, compared to 3AC treatment of C57BL/6 hosts
  overall survival: did not prolong survival
RMA-Rael cells; subpopulation of 3AC treated C57BL/6 mice, pulsatile dosing, tumor uniformly lethal in vehicle mice
  long term survival: durable, long term survival without any evidence of tumor burden
MC-38
  MC-38 viability (direct killing): resistant to direct killing
